Data published in US20240002425A1, “NOVEL AMINOALKYL GLUCOSAMINIDE 4-PHOSPHATE DERIVATIVE” (DAIICHI SANKYO COMPANY, LIMITED, priority 2020, published 2024).

How the values were obtained:
[1] = biological target: human TLR4 (Homo sapiens, UniProt O00206+Q9Y6Y9); assay: Human TLR4 activating effect (HEK-Blue Human TLR4 Cells, SEAP reporter); assay type: cell-based; conditions: 24 hours, SEAP Protein concentration, read-out: EC50 (ng/ml) (converted)
Procedure: The human TLR4 activating effect was studied using the compounds described in Examples 1 to 17 and monophosphoryl lipid A as Comparative Example A.
Triethanolamine was dissolved at 0.5% (v/v) in injectable distilled water to prepare an aqueous triethanolamine solution. 1 mg of each test drug was dissolved in 0.98 mL of the aqueous triethanolamine solution, and pH of the solution was then adjusted to 7.2 to 7.4 by the addition of 20 μL of 1 M HCl to prepare a 1 mg/mL solution. A dilution series of the test drug was prepared using a medium [DMEM (Nacalai Tesque, Inc.), 10% FBS (Sigma-Aldrich Co. LLC), 50 U/mL penicillin-50 μg/mL streptomycin (Thermo Fisher Scientific Inc.), 1×HEK-Blue Selection (InvivoGen), and 100 μg/mL Normocin (InvivoGen)]. 2×10^5 cells/mL HEK-Blue™ Human TLR4 Cells (InvivoGen) were inoculated to each well of a 96-well microplate for tissue culture (Iwaki), then treated with the test drug, and cultured at 37° C. for 24 hours under 5% CO2. The cells thus cultured were centrifuged at 400×g at 4° C. for 3 minutes. Recombinant SEAP Protein (InvivoGen) was used for a calibration curve. After addition of 180 μL of QUANTI-Blue (InvivoGen) to each well of 96 Well TC-Treated Microplates (Corning, Inc.), 20 μL each of the cell culture supernatant and a standard diluting solution was added to each well, and the plate was left standing at 37° C. for 4 hours. After reaction, absorbance (wavelength: 655 nm) was measured using a microplate reader (PerkinElmer, Inc., EnSpire), and a SEAP Protein concentration was calculated from the calibration curve and used as an index for TLR4 agonist activity. A drug concentration that induced reaction corresponding to 50% of the maximum reaction was calculated as EC50 (ng/mL) from a linear expression using two drug concentrations between which the drug concentration that induced reaction corresponding to 50% of the maximum reaction in each experiment was positioned, and measured values thereof.

[2] = system: SARS-CoV-2 RBD; conditions: mouse, in vivo
[3] = system: various allergens (Japanese cedar pollen, mite, ragweed, timothy, peanut, milk); assay: Immunostimulatory effect on various allergens by sublingual administration (allergen-specific IgG titer); assay type: in vivo, mouse; conditions: allergen-sensitized mice, sublingual with allergen, up to 12 weeks; all the allergens; compared with allergen alone
Procedure: The compound described in Example 2(2e) was used to study its immunostimulatory effect on various allergens by sublingual administration.
Japanese cedar pollen antigen extracts were prepared by treating Japanese cedar pollen (Yamizo Pollen Study Group) with a solution containing 0.125 M NaHCO3 and 0.5 M NaCl for 24 hours (4° C.), and then insoluble matter was removed by filtration. The concentration of Cry j 1 contained in the extracts was measured, and the extracts were diluted into 12.5 μg/mL (10000 JAU/mL). Allergen scratch extracts (Torii Pharmaceutical Co., Ltd.) were used as mite, ragweed, timothy, peanut, and milk. Allergen sensitization was performed by intramuscularly administering the allergen (20 μL) to the mouse femoral region 1 week before the start of sublingual administration. The allergen scratch extracts of mite, ragweed, timothy, peanut, or milk were diluted 10-fold with PBS and used in allergen sensitization. Sublingual administration was started from 1 week after sensitization. […]
Each allergen was added at 25 μL/well (Japanese cedar pollen, 1 μg Cry j 1/mL; mite, ragweed, timothy, peanut, and milk, 1:1000 diluted) to a plate for ELISA, which was then left standing overnight at 4° C. […] Then, 30 μL of a TMB stop solution was added to each well, and absorbance at 450 nm was measured. […]

human TLR4, sequence (O00206 24-839): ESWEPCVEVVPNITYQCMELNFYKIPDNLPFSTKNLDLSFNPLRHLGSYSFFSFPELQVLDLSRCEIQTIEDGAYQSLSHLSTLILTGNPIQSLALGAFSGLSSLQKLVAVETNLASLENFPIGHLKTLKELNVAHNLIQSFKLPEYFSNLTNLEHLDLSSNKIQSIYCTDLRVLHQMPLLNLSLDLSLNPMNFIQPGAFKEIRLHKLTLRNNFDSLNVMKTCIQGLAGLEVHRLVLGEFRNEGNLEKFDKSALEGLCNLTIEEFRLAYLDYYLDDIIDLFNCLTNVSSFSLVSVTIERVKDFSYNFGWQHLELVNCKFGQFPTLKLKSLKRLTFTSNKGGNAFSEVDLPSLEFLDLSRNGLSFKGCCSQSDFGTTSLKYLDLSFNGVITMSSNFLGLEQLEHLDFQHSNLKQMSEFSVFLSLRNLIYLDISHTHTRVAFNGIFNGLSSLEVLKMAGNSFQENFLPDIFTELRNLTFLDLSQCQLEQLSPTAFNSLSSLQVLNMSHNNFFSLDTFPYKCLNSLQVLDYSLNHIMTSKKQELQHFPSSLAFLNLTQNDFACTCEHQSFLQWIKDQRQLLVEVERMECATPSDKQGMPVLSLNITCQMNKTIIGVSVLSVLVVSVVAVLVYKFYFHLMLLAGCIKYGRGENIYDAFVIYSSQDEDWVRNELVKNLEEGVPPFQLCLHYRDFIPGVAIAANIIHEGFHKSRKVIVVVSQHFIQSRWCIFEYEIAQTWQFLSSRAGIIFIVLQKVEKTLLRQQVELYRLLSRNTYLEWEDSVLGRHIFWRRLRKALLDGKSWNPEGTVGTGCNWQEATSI
human TLR4, sequence (Q9Y6Y9 17-160 limits assumed): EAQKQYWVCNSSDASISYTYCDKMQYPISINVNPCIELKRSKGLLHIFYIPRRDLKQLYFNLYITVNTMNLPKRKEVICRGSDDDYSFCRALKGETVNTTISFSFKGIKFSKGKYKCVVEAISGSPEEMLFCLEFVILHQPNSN

Molecule `CCCCCCCCCCC[C@H](CC(=O)N[C@H]1[C@H](OC[C@H](NC(=O)C[C@@H](CCCCCCCCCCC)OC(=O)CCCCCCCCC)C(=O)O)O[C@H](CO[C@]2(C(=O)O)C[C@@H](O)[C@@H](O)[C@@H]([C@H](O)CO)O2)[C@@H](OP(=O)(O)O)[C@@H]1OC(=O)C[C@@H](CCCCCCCCCCC)OC(=O)CCCCCCCCC)OC(=O)CCCCCCCCC` [Example 4(4d), Ammonium (2S)-2-{[(3R)-3-(decanoyloxy)tetradecanoyl]amino}-3-({3-O-[(3R)-3-(decanoyloxy)tetradecanoyl]-2-{[(3R)-3-(decanoyloxy)tetradecanoyl]amino}-2-deoxy-6-O-(3-deoxy-α-D-manno-oct-2-ulopyranonosyl)-4-O-phosphono-β-D-glucopyranosyl}oxy)propanoate] has an EC50 [1] of 0.328 nM.
`CCCCCCCCCCC[C@H](CC(=O)NC1C(CC[C@@H](CC(=O)O)NC(=O)C[C@@H](CCCCCCCCCCC)OC(=O)CCCCCCCCC)OC(CO)C(OP(=O)(O)O)C1OC(=O)C[C@@H](CCCCCCCCCCC)OC(=O)CCCCCCCCC)OC(=O)CCCCCCCCC` (stereo partly drawn) [Example 10(10r), Ammonium 6,10-anhydro-8-O-[(3R)-3-(decanoyloxy)tetradecanoyl]-3,7-bis{[(3R)-3-(decanoyloxy)tetradecanoyl]amino}-2,3,4,5,7-pentadeoxy-9-O-phosphono-D-erythro-L-galacto-undecanoate] was tested, and the EC50 [1] was 0.667 nM.
`CCCCCCCCCCC[C@H](CC(=O)N[C@@H](CO[C@@H]1O[C@H](CO[C@]2(C(=O)O)C[C@@H](O)[C@@H](O)[C@@H]([C@H](O)CO)O2)[C@@H](OP(=O)(O)O)[C@H](OC(=O)C[C@@H](CCCCCCCCCCC)OC(=O)CCCCCCCCC)[C@H]1NC(=O)C[C@@H](CCCCCCCCCCC)OC(=O)CCCCCCCCC)CC(=O)O)OC(=O)CCCCCCCCC` [Example 2(2e), Ammonium (3R)-3-{[(3R)-3-(decanoyloxy)tetradecanoyl]amino}-4-({3-O-[(3R)-3-(decanoyloxy)tetradecanoyl]-2-{[(3R)-3-(decanoyloxy)tetradecanoyl]amino}-2-deoxy-6-O-(3-deoxy-α-D-manno-oct-2-ulopyranonosyl)-4-O-phosphono-β-D-glucopyranosyl}oxy)butanoate] was tested, and the “anti-RBD IgA in blood” value [2] was “markedly high”, the “anti-RBD IgA in nasal wash” value [2] was “induced at a high level” and the “anti-RBD IgG in blood” value [2] was “markedly high”. For the same molecule, the “allergen-specific IgG titer in blood” value [3] was “markedly higher” and the EC50 [1] was 0.0499 nM.
In the case of `CCCCCCCCCCC[C@H](CC(=O)NC1C(CC[C@H](NC(=O)C[C@@H](CCCCCCCCCCC)OC(=O)CCCCCCCCC)C(=O)O)OC(CF)C(OP(=O)(O)O)C1OC(=O)C[C@@H](CCCCCCCCCCC)OC(=O)CCCCCCCCC)OC(=O)CCCCCCCCC` (stereo partly drawn) [Example 16(16b), Ammonium 5,9-anhydro-7-O-[(3R)-3-(decanoyloxy)tetradecanoyl]-2,6-bis{[(3R)-3-(decanoyloxy)tetradecanoyl]amino}-2,3,4,6,10-pentadeoxy-10-fluoro-8-O-phosphono-D-erythro-L-galacto-decanoate], the EC50 [1] is reported as 1.01 nM.
For `CCCCCCCCCCC[C@H](CC(=O)NC1C(CC[C@@H](CC(=O)O)NC(=O)C[C@@H](CCCCCCCCCCC)OC(=O)CCCCCCCCC)OC(COC2(C(=O)O)CC(O)C(O)C([C@H](O)CO)O2)C(OP(=O)(O)O)C1OC(=O)C[C@@H](CCCCCCCCCCC)OC(=O)CCCCCCCCC)OC(=O)CCCCCCCCC` (stereo partly drawn) [Example 11(11d), Ammonium 6,10-anhydro-8-O-[(3R)-3-(decanoyloxy)tetradecanoyl]-3,7-bis{[(3R)-3-(decanoyloxy)tetradecanoyl]amino}-2,3,4,5,7-pentadeoxy-11-O-(3-deoxy-α-D-manno-oct-2-ulopyranonosyl)-9-O-phosphono-D-erythro-L-galacto-undecanoate], the EC50 [1] was 0.291 nM.
For `CCCCCCCCCCC[C@H](CC(=O)N[C@H]1[C@H](OC[C@H](NC(=O)C[C@@H](CCCCCCCCCCC)OC(=O)CCCCCCCCC)C(=O)O)O[C@H](CO[C@@H]2O[C@H](CO)[C@@H](OP(=O)(O)O)[C@H](O)[C@H]2NC(C)=O)[C@@H](OP(=O)(O)O)[C@@H]1OC(=O)C[C@@H](CCCCCCCCCCC)OC(=O)CCCCCCCCC)OC(=O)CCCCCCCCC` [Example 8(8f), Ammonium (2S)-3-({6-O-[2-acetamido-2-deoxy-4-O-(hydroxyphosphinato)-β-D-glucopyranosyl]-3-O-[(3R)-3-(decanoyloxy)tetradecanoyl]-2-{[(3R)-3-(decanoyloxy)tetradecanoyl]amino}-2-deoxy-4-O-phosphono-β-D-glucopyranosyl}oxy)-2-{[(3R)-3-(decanoyloxy)tetradecanoyl]amino}propanoate], the EC50 [1] was 0.35 nM.
